Here are results for four molecules from patent EP0458214A1, “Bicyclic 1-azacycloalcanes” (BOEHRINGER INGELHEIM KG, priority 1990, dated 1991).

As a reminder, the Ki is a dissociation constant, usually derived from enzyme kinetics or from competition with a known ligand. High values mean a looser hold on the target, low ones a stronger hold on the target.

One assay addresses muskarinen Rezeptoren. Put plainly: Receptor binding studies (Tabelle A), radioligand displacement. The note with it: Radioligand L(+)cis-[2-Methyl-³H]-N,N,N-trimethyl-1, 3-dioxolan-4-methanammonium-jodid; Organ: Cerebraler Cortex (Ratte). From the text:
Die zur Synthese notwendigen Ausgangsverbindungen, die entsprechenden Hydroxyazabicycloalkane, sind aus dem Stand der Technik bekannt, [drawing 9] so z.B. für n = O aus JACS 74, 2215 (1952) (IIa), J. Org. Chem. 33, 4376 (1968) (IIb), der europäischen Patentanmeldung 307 140 (III) und J. Pharm. Science 52, 331 (1954) (IV). Ausgangsverbindungen (R = H), in denen n = 1 oder 2 bedeutet, sind durch Reduktion der entsprechenden Alkylester (X -R = COOAlkyl) erhältlich. Ausgehend von den entsprechenden Ketonen lassen sich die Thiole der allgemeinen Formeln II und III in Analogie zu dem in J. Chem. 43, 1965 beschriebenen Verfahren herstellen. Ist R in der allgemeinen Formel I ein aromatischer oder heteroaromatischer Rest, so können die Verbindungen der allgemeinen Formel I unter Anwendung der Mitsunobu Reaktion (O. Mitusunobu in Synthesis, 1, 1981, Georg Thieme Verlag, Stuttgart; J. C. S. Perkin I, Seite 462, 1975) durch Umsetzung der entsprechenden hydroxysubstituierten Reaktanden (Formel I R=H, Reagenz HOR, R=Phenyl,Heterocyclus) in Gegenwart von Azodicarbonsäurediethylester und Triphenylphospin erhalten werden. Die Umsetzung erfolgt im allgemeinen in inerten organischen Lösungsmitteln bei Raumtemperatur. Die Verbindungen der allgemeinen Formel I besitzen wertvolle pharmakologische Eigenschaften. So zeigen die Verbindungen in Bindungsstudien Affinitäten zu muskarinen Rezeptoren und muskarin-agonistische GTP-Shifts (GTP = Guanosintriphosphat). (Birdsall, N.I.M., E.C. Hulme and I.M. Stockton 1984 in T.I.P.S. Supplement, Proc. Internat. Symposium on Subtypes of Muscarinic Receptors, Ed. Hirschowitz, Hammer, Giacchetti, Klirns, Levine; Elsevier p. 4 - 8).
Die Rezeptorbindungsstudien wurden gemäß dem nachstehenden Literaturzitat ausgeführt [A. Closse, H. Bittiger, D. Langenegger und A. Wahner; Naunyn-Schmiedeberg's Arch. Pharmacol. 335, 372 - 377 (1987)].
Radioligand: L(+)cis-[2-Methyl-³H]-N,N,N-trimethyl-1, 3-dioxolan-4-methanammonium-jodid NET-647, Fa. NEN (New England Nuclear DU PONT). Organ: Cerebraler Cortex (Ratte)
A general note: Displacement assays read how much labelled ligand stays bound in the presence of the test substance.

A further assay concerns the target T1, Muskarinsubtypen M₁ (Rattus norvegicus, UniProt P08482).
T1 sequence (P08482 1-460): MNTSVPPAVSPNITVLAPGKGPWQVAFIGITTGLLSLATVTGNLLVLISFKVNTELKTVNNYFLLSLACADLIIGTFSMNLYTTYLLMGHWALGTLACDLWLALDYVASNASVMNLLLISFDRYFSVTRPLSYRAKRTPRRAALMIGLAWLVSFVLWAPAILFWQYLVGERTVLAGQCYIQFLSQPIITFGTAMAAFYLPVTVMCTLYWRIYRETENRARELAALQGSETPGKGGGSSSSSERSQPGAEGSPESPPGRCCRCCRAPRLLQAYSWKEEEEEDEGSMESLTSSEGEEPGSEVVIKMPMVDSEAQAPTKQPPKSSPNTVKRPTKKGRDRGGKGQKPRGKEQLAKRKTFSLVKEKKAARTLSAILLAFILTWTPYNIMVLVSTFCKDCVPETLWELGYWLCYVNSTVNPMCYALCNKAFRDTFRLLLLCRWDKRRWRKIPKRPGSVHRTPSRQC
Put plainly: Binding studies at muscarinic subtypes. The note with it: gegenüber dem Razemat und dem (-)-Enantiomer. Set-up: species or system Ratte.

A further assay has as its target T2, Muskarinsubtypen M₂ (Rattus norvegicus, UniProt P10980).
T2 sequence (P10980 1-466): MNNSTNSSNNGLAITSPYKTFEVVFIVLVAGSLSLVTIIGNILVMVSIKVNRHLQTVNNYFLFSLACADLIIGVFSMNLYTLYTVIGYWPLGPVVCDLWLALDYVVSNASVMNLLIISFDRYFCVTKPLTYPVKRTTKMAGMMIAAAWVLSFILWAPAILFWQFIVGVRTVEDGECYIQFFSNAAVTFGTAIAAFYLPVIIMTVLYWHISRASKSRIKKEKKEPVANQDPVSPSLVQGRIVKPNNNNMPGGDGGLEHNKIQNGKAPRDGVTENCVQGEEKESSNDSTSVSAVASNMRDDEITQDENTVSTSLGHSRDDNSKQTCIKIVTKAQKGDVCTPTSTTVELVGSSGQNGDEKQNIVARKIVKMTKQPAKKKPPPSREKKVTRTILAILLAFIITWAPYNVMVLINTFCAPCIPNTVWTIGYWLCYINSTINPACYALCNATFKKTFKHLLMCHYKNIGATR
Description: Binding studies at muscarinic subtypes. More on the design: species or system Ratte. The note with it: gegenüber dem Razemat und dem (-)-Enantiomer.

The next assay concerns the target Muskarinsubtypen M₃ (Rattus norvegicus, UniProt P08483). Description: Binding studies at muscarinic subtypes. More on the design: species or system Ratte. The note with it: gegenüber dem Razemat und dem (-)-Enantiomer.
Another assay deals with T3, human-m₁-Rezeptorsubtyp (Homo sapiens, UniProt P11229).
T3 construct: expressed in transfected cells; host or cells: CHO cells
T3 sequence (P11229 1-460): T1 sequence (P08482 1-460) with V5A, S254T, S309P, K320R, G337A, V413I
Description: Stimulation of phosphatidylinositol turnover in CHO cell cultures. The note with it: CHO-Zellkulturen mit human-m₁-Rezeptorsubtyp; gegenüber dem Razemat und dem (-)-Enantiomer. Format: cell-based.

The subject of a further assay is Kaninchen. Description: Cholinomimetic in vivo activity by EEG (theta wave increase). From the text: Die cholinomimetische in-vivo-Wirksamkeit von (+)-(Propargyloxymethyl)-1-aza-bicyclo- [2.2.2]octan wurde am Kaninchen mittels EEG (Thetawellenzunahme) nachgewiesen.

Changes are numbered by the printed parent chain.

Sequence of Muskarinsubtypen M₃ (P08483 whole entry): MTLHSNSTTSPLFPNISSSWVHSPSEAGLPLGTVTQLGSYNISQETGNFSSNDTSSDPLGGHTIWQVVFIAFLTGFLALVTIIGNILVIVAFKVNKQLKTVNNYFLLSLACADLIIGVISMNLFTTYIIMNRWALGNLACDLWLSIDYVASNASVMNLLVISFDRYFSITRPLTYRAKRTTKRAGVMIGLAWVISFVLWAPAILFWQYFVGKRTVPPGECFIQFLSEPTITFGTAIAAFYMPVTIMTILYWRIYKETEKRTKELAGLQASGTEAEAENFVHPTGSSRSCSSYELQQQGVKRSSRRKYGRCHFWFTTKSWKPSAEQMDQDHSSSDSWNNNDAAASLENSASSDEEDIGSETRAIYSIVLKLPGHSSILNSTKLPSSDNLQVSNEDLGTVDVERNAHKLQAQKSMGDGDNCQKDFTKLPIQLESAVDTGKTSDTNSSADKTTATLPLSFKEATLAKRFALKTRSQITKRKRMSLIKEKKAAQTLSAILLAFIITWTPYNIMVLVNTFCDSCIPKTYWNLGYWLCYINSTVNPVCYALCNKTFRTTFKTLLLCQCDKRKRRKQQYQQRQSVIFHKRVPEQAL

`c1cncc(OC2CN3CCC2CC3)c1` (centres unmarked) [Beispiel 1] returned a Ki on muskarinen Rezeptoren of 0.12 µM.

On muskarinen Rezeptoren, `c1ccc(COC2CN3CCC2CC3)cc1` (racemic) [Beispiel 4] showed a Ki of 0.229 µM.

On to `c1ccc(OC2CN3CCC2CC3)cc1` (centres unmarked) [Beispiel 9, 3-Phenoxy-1-azabicyclo[2.2.2]octan], for which, on muskarinen Rezeptoren, affinity was put at a Ki of 0.089 µM.

On to `C#CCOCC1CN2CCC1CC2` (single isomer, unassigned; (+)) [(+)-3-(Propargyloxymethyl)-1-azabicyclo[2.2.2]octan], for which the “Bindungsstudien M₁: Wirksamkeit in vitro” value on Muskarinsubtypen M₁ is reported as “stärker wirksam”. At Muskarinsubtypen M₂, the “Bindungsstudien M₂: Wirksamkeit in vitro” value is recorded as “stärker wirksam”. Moreover, the “Bindungsstudien M₃: Wirksamkeit in vitro” value at Muskarinsubtypen M₃ is given as “stärker wirksam”. Besides, the “Stimulation des Phosphatidylinositol-turnovers” value at human-m₁-Rezeptorsubtyp was “stärker wirksam”. Also, the “cholinomimetische in-vivo-Wirksamkeit (Thetawellenzunahme)” value with Kaninchen is reported as “nachgewiesen”.
